# Results from ChEMBL document CHEMBL5257071, “Total Synthesis and Biological Evaluation of the Anti-Inflammatory (13R,14S,15R)-13-Hydroxy-14-deoxyoxacyclododecindione” (J Nat Prod, 2023).
# Molecular target: Mothers against decapentaplegic homolog 2/homolog 3 (Homo sapiens, UniProt P84022+Q15796)
# Assay: Inhibition of TGF-beta induced Smad2/3 signaling in human HepG2 cells harboring pRL-EF1alpha, (CAGA)9x-MLP-Luc plasmid assessed as luciferase activity incubated for 24 hrs by Promega reporter rene assay
# Assay type: cell-based
row,IC50 [nM],SMILES
1,30,C/C1=C\CCC(C)(C)C(C)OC(=O)Cc2c(Cl)c(O)cc(O)c2C1=O (centres undefined)
2,236,C/C1=C\C[C@@H](O)[C@H](C)[C@@H](C)OC(=O)Cc2c(Cl)c(O)cc(O)c2C1=O
3,90,C/C1=C\CC[C@H](C)[C@@H](C)OC(=O)Cc2c(Cl)c(O)cc(O)c2C1=O
4,137,C/C1=C\CCC(C)(O)C(C)OC(=O)Cc2c(Cl)c(O)cc(O)c2C1=O (centres undefined)
